Data on 3 compounds can be found in patent US10357537B2, “Cyclotides as immunosuppressive agents” (priority 2011, dated 2019).

Data set [1] in a line: Relative hemolytic activity (other assays, Table 2). The following applies: some values given for the Ala mutant. The data set is classed as cell-based.
Data set [2] is described as follows: Relative insecticidal activity (other assays, Table 2). The following applies: in vivo.
Data set [3] has as its system IL-2 surface receptor CD25 on PBMC. The data set is described as follows: IL-2 surface receptor CD25 expression, FACS. The data set is classed as cell-based, human. The following applies: cyclotides 4 μM, CsA 5 μg/mL, PHA-L; stimulated untreated PBMCs = 100%. On the procedure:
PBMCs were isolated from blood samples of healthy adults that were provided by the transfusion center of the university hospital in Freiburg (Germany). […] The lymphocyte-enriched layer was transferred into a new vessel and washed three times with PBS and centrifuged again (10 min, twice with 300×g and last time with 800 rpm, 20° C.). For the following experiments, the cells were either stained with CFSE or diluted with medium to 4*10^6 cells/ml. Cells were counted in alight microscope using trypan blue staining and a hemocytometer.
(§1) Following purification, PBMCs were equilibrated for 2 h at 37° C. […] This was followed by washing of each well with 100 μl PBS (centrifugation for 5 min, 1000 rpm, 20° C.) and re-suspending the cells in 100 μl medium for further assays.
Activated cells were transferred into a 96-well plate, centrifuged (5 min, 1000 rpm, 20° C.), washed one time with 100 μl FACS-buffer and stained with CD25 PE for 15 min at 4° C. Then cells were washed twice with FCS-buffer and resuspended in 100 μl FACS-buffer, transferred into FACS vials with a total volume of 250 μl and the expression of IL2 surface receptor CD25 was measured by FACS analysis using a FACSCalibur instrument (BD Biosciences).
Amongst other pathways, T-cell proliferation is determined by binding of the cytokine IL-2 to its cell surface receptor. Therefore the influence of cyclotides on the expression of the IL-2 receptor was tested. […] As control substance CsA was used. […] Treatment with V10A yields 114%±12.5, V10K yields 112%±16.3 and T8K yields 114%±17.3 CD25 surface expression after 24 h as compared to the control (FIG. 11B).

The subject of data set [4] is PHA-L-stimulated PBMC. The data set is described as follows: Proliferation of PHA-L-stimulated CFSE-labelled PBMC with or without exogenous IL-2. The data set is classed as cell-based, human. The following applies: cyclotides 4 μM, CsA 5 μg/mL, 3 day culture; for proliferation with exogenous IL-2: IL-2 10 U/mL. On the procedure:
FIG. 13. Proliferation capacity of cyclotide-treated PBMC in the presence of exogenous IL-2. […] The cells were cultured without exogenous IL-2 (10 U/mL) (A and B) or in the presence of IL-2 (C and D). The CFSE-labelled cells were measured after a 3 day culture period by flow cytometry and representative data are presented in dot plots (A and C). Data are presented as mean and standard deviation (SD) of three independent experiments.
as §1
Purified PBMCs (5*10^6 cells/ml) were incubated with […] of the fluorescent dye CFSE (5-carbofluoreszenein-ciacetat-succinylester) for 10 min at 37° C. The reaction was stopped using medium, cells were washed one time with medium by centrifugation (10 min, 300×g, 20° C.) and diluted with medium to 4*10^6 cells/ml.

Data set [5] has as its system IFN-gamma production of activated PBMCs. As to the kind of experiment: IFN-gamma secretion of PBMC, ELISA-based FACS. The data set is classed as cell-based, human. The following applies: 36 h past stimulation. On the procedure:
FIG. 14. IFN-γ secretion by cyclotide-treated PBMC. […] Untreated cells were used as control. Following 24 h or 36 h of cultivation, the cells were restimulated with PMA/Ionomycin for further 6 hour. The amount of IFN-γ was measured in the supernatant of cultured cells using an ELISA-based flow cytometric method. The data are presented as mean and standard deviation (SD) of three independent experiments.
Activated cells were resuspended in 50 μl of medium, transferred into a 96-well plate and treated with 10 μg/ml PHA-L. After incubation for 24 h cells were re-stimulated with PMA (50 ng/ml) und ionomycin (500 ng/ml) for 6 h. Next, the cells were transferred into Eppendorf tubes, centrifuged (5 min, 3000 RPM, 20° C.) und 50 μl of the supernatant was again transferred into new tubes and stored at −20° C. Production of cytokines was measured and quantified using the FlowCytomix™ kit according to manufacturer's instructions.
Therefore it is of interest to determine whether cyclotides only have anti-proliferative effects or also affect the effector function of T-lymphocytes, which would directly relate to changes in the IFN-gamma and TNF-alpha production. Therefore, the production of both cytokines of cyclotide-treated, activated PBMCs at an early time point after PBMC activation was tested.
A general note: In an ELISA, binding on a coated surface is turned into a signal by an enzyme label.

The subject of data set [6] is activated human primary PBMC. The data set is described as follows: Anti-proliferative CFSE cell division assay on anti-CD3/CD28-activated PBMC. The following applies: PBMCs, anti-CD3/28 mAbs, 72 h, cyclotides 1.8-14 μM; n.a. = not active. On the procedure: Human peripheral blood mononuclear cells (PBMC) were isolated from the blood of healthy adult donors obtained from the Blood Transfusion Centre (University Medical Center, Freiburg, Germany). Venous blood was centrifuged on a LymphoPrep™ gradient (density: 1.077 g/cm^3, 20 min, 500×g, 20° C.; Progen, Heidelberg, Germany). Afterwards cells were washed twice with medium and cell viability and concentration was determined using the trypan blue exclusion test. PBMC were cultured in RPMI 1640 medium supplemented with 10% heat-inactivated fetal calf serum (PAA, Coelbe, Germany), 2 mM L-glutamine, 100 U/mL penicillin and […] (all from Invitrogen, Karlsruhe, Germany). The cells were cultured at 37° C. in a humidified incubator with a 5% CO2/95% air atmosphere. All experiments conducted on human material were approved by the Ethics committee of the University of Freiburg.
(§2) After cultivation, the cells were assessed in bioassays as described in the text.
For cell proliferation and cell division tracking analysis PBMC were harvested and washed twice in cold PBS and resuspended in PBS at a concentration of 5×10^6 cells/mL. Cells were incubated for 10 min at 37° C. with carboxyfluorescein diacetate succinimidyl ester (CFSE; 5 μM: Sigma-Aldrich, Taufkirchen, Germany). The staining reaction was stopped by washing twice with complete medium. Afterwards, the cell division progress was analysed using flow cytometric analysis.
The anti-proliferative effect of cyclotide mutants/variants was tested according to Example 5. […] Afterwards the cell proliferation was assessed by analysing cell division using flow cytometric-based histogram analysis.

Data set [7] deals with nematodes. The data set is described as follows: Relative nematocidal activity (other assays, Table 2). The data set is classed as in vivo. The following applies: some cells print two values separated by a slash.
The test system of data set [8] is degranulation marker LAMP-1 (CD107a) on activated PBMC. As to the kind of experiment: CD107a degranulation analysis. The data set is classed as cell-based, human. The following applies: after 36 h; T20K 4 μM, CsA 5 μg/mL. On the procedure: FIG. 16. Degranulation capacity of cyclotide-treated activated human PBMC. […] After 36 hour of cultivation the cells were restimulated with PMA/Ionomycin for 2.5 hours in the presence of a CD107a mAbs and GolgiStop reagent to determine the amount of degranulation by flow cytometry. Representative data are shown in dot plots (A) and in (B) data are presented as mean and standard deviation (SD) of three independent experiments.
Activated cells were grown for 36 h and then treated for re-stimulation with PMA (50 ng/ml) und ionomycin (500 ng/ml) and stained with CD107a PE. After 1 h the reaction was stopped with 2 μl Golgi-Stop (1:10) and incubated for 2.5 h at 37° C. The cells were transferred into a 96-well plate, centrifuged (5 min, 1000 RPM, 20° C.) and washed with 100 μl FACS-buffer. Afterwards, PBMCs were stained with CD8 PE-Cy5 for 15 min at 4° C. and following to wash cycles with FACS-buffer the cells were resuspended in 100 μl, transferred into FACS vials with a total volume of 250 μl and the degranulation was measured by FACS analysis.
After determining the influence of cyclotide treatment on the effector function of PBMCs on the basis of measuring IFN-gamma and TNF-alpha cytokine levels, it is of interest to determine an effect of cyclotides on the degranulation activity. Activation of cytotoxic CD8^+-lymphocytes lead to a release of cytolytic granules, which contain/express lysosomal-associated membrane protein 1 (CD107; LAMP-1). During degranulation, the granule vesicle membranes fuse with the membranes of activated CD8^+-lymphocytes and therefore LAMP-1 can be used as a marker protein for the cytotoxic activity of T-lymphocytes, which can be measured with FACS. After 36 h, 42%±21.4 of the CsA- and 49%±16.8 of the T20K-treated cells contain the degranulation marker LAMP-1 as compared to the control (FIG. 16). This can be interpreted in the way that CsA- and T20K-treated cells have reduced cytotoxicity.

Data set [9] relates to activated human primary PBMC. The data set is described as follows: Flow cytometric forward-side-scatter analysis of viability and proliferation. The data set is classed as cell-based. The following applies: extract 50-100 μg/mL; CPT 30 μg/mL. As for the experimental part:
After completion of the chemical analysis, different concentrations of the crude O. affinis cyclotide extract were tested for its anti-proliferative capacity on activated human primary PBMC (FIG. 2).
In general terms: Flow cytometry measures light scatter and fluorescence of single cells or particles in a stream.

Data set [10] deals with activated human primary PBMC. The following applies: kalata B1 1.8-14 μM; CPT 30 μg/mL; melittin up to 1.6 μM. On the procedure: as §2
The levels of apoptosis were determined using the annexin V-FITC apoptosis detection kit (eBioscience, Frankfurt, Germany) according to the manufacturer's instructions. After annexin V staining, propidium iodide solution (PI; eBioscience) was added and the cells were incubated in the dark, followed by a flow cytometric analysis to determine the amount of apoptosis and necrosis. CPT (30 μg/mL) and Triton-X 100 (0.5%) was used as positive controls for apoptosis and necrosis, respectively.
Cellular apoptotic and necrotic hallmarks were measured by using inter-nucleosomal DNA fragmentation (subG1^+ cells) assay and phosphatidylserine surface analysis through a single and combinatory annexin V and propidium iodide staining. This double staining process allowed the discrimination between viable (annexin^−/PI^−), apoptotic (annexin^+/PI^− and annexin^+/PI^+) or necrotic (annexin^−/PI^+) cells.

Marks after values point to notes of the source that are not given here.

Take “kalata B1 mutant GLPVCGETCAGGTCNTPGCTCSWPVCTRN (SEQ ID No. 9) [Kalata V10A]”: in data set [1], the “Relative activity in other assays (fold difference to kB1): hemolytic” value is 0.5 fold difference to kB1. For the same compound, in [2], the “Relative activity in other assays (fold difference to kB1): insecticidal” value is recorded as 1.1 fold difference to kB1. For the same compound, in [3], the “CD25 expression after 48 h” value is on record as “no significant change in receptorexpression” and the “CD25 surface expression after 24 hours” value is on record as 114%±12.5. Besides, in data set [4], the “proliferation with exogenous IL-2” value is “did not change the effect on proliferation” and the “proliferation as compared to the control cells, without exogenous IL-2” value is “no effect on the proliferation”. In [5], the “IFN-gamma production as compared to the control, 36 h” value is “did not induce significant changes in the level of IFN-gamma”.

Regarding “kalata B1 mutant GLPVCGEKCVGGTCNTPGCTCSWPVCTRN (SEQ ID No. 8) [Kalata B1 T8K, Kalata T8K]”, the “IC50 (μM) ± STDEV, inhibition of PBMC proliferation” value in [6] was “not active (n.a.)^b”. The “Relative activity in other assays (fold difference to kB1): nematocidal” value in data set [7] is listed as <0.2 fold difference to kB1. In addition, in data set [2], the “Relative activity in other assays (fold difference to kB1): insecticidal” value is recorded as 0.2 fold difference to kB1. In addition, in data set [3], the “CD25 expression after 48 h” value is listed as “no significant change in receptorexpression” and the “CD25 surface expression after 24 hours” value is recorded as 114%±17.3. Also, in [4], the “proliferation with exogenous IL-2” value is reported as “did not change the effect on proliferation” and the “proliferation as compared to the control cells, without exogenous IL-2” value was “no effect on the proliferation”. Besides, in [5], the “IFN-gamma production as compared to the control, 36 h” value is “did not induce significant changes in the level of IFN-gamma”. In addition, in data set [8], the “cells containing the degranulation marker LAMP-1 as compared to the control” value is recorded as “no influence on the degranulation activity”.

Regarding `CC[C@@]1(O)C(=O)OCc2c1cc1n(c2=O)Cc2cc3ccccc3nc2-1` [camptothecin, reference compound], the “dead cells / harm to cells (forward-side-scatter)” value in data set [9] is “induced a high proportion of dead cells”. In addition, the induction of apoptosis entry in data set [10] is “significantly increased the fractions of these cells”.
